# Patent US20050220906A1, “Pharmaceutical composition for treating rheumatism and the preparation thereof” (priority 2002, published 2005)
# What was measured:
# hemolysin antibody [1] = assay: Hemolysin antibody caused by chick RBC, ICR mouse; assay type: in vivo; conditions: 0˜7
# Method: (§1) 190 mice, 18-22 g weight, half male and half female, were divided into 19 groups. Each mouse was immunized with 5% CRBC solution 0.2 ml. The Fengshiping solutions were drenched at the different times. 7 days after the immunization, all the mice were sampled the blood from the eyes. Then the blood samples were diluted and measured the level of the hemolysin antibody.
# hemolysin antibody [2] = assay: Hemolysin antibody caused by chick RBC, NIH mouse; assay type: in vivo; conditions: 0.02 g/kg, 0˜7
# Method: as §1
# TNF α = TNF α level of cultured cells from dosed mice; assay type: in vivo, ICR mice; conditions: 0.02 g/kg, 10 days
# Method: 60 ICR mice, 1822 g, half male and half female, were divided into 6 groups at random. Each group was drenched of the correspondent medicines including the different dosages of Fengshiping and the other medicines. The medicines were administrated once a day for 10 days. 24 hours after the last administration, the mice were sampled the macrophage and spleen cells from the abdominal cavity in the aseptic condition. The samples were washed with Hank's liquor for 2 times and non-serum RPIM 1640 liquor for 1 time. Then the washed samples were diluted to the suspension with the 5% FCS-RPMI 1640 at the concentration of 2×10^8/ml. Then the suspensions were added with 10 ng/ml LPS or the 10 ng/ml ConA and cultured in the 5% CO2 condition for 48 hours at 37° C. Then the cultured suspension were measured the TNF α and IL-2 levels on the usual methods.
# The batten was coated by mouse TNF-α monoclonal antibody. The batten was added with the cultured supernate on the dose of 50 μl/hole. Then the batten was put still for 60 minutes at the room temperature. Then the batten was added with biotin antibody mark at 25° C. for 2 hours. Then the enzyme labeled avidin was added into the batten for 30 minutes. […] The mixed liquor was measured the OD value at the wavelength of the 450 nm. The content of the TNF-α (ng/ml) was calculated on the data of OD value by the method of standard curve.
# DTH caused by DNFB = assay: Delayed hypersensitivity (DTH) caused by DNFB in the mouse ear; assay type: in vivo, NIH mouse
# Method: Each mouse was led to hypersensitivity reaction by using the 1% DNFB acetone solution on the dosage of 0.025 ml at the right place of the abdomen where the pilus had been cut yet. Using the same solution on the same place was to enhance the hypersensitivity reaction on the third day. On the fifth day, all the mice were smeared with the 1% DNFB edible oil solution at the mice's right ears on the dosage of 0.01 ml each. 24 hours later, all the mice were killed. The mouse's 2 ears were weighted by the torsion balance and the difference of the 2 ears was recorded as the DTH degree caused by the DNFB. The experiment was carried out on the different immune and administration processes.
# The immune and administration processes is as following: [drawing 1]
# CD4, CD8 cells = assay: CD4 and CD8 cells of the spleen; assay type: in vivo, ICR mice; conditions: 0.02 g/kg
# Method: The experiment was same to 5.1. 24 hours after the last administration, the spleen cell samples were made into the 2×10^8/ml cell suspension with 5% FCS-RPIM1640. The quantity of CD4, CD8, NK cells and the rate CD4/CD8 were measured on the usural method.
# The spleen cell suspension 50 μl was added on the glass to made the cell smear. The glass had been coated by the polylysine. The T cell of the mouse was set as the positive control sample. The cell smear was enveloped by the serum of the normal mouse after it was fixed by the acetone. Then the enveloped sample was added with the antibody of CD4 and CD8 which were marked by the hominine biotin. It was incubated at 37° C. for 2 hours. Then the sample was added with the avidin labeled by enzyme and put still for 10 min. After added with the substrate for 10 min, the mixed sample was washed and dyed with the hematoxylin for 2 min. Then the sample was dyhidrated with the grade-alcohol and enveloped with gelatin-glycetrol. 200 cells in the smear were chosen as the research target under the high power microscope. [formula]
# IL-6 = IL-6 of spleen cells from dosed mice (MH60 cells); assay type: in vivo, NIH mice; conditions: 0.02 g/kg, 10 days
# Method: 70 NIH mice, 18-22 g weight, half male and half female, were divided into 7 groups at random. All the groups were drenched with the correspondent medicines (fengshiping and the other medicines). The medicines were drenched once a day for 10 days. 24 hours after the last administration, all the mice were killed and sampled the macrophage and spleen cells from the abdominal carvity. The IL-1 and IL-6 in the samples were measured.
# The spleen cells were sampled in the asepsis condition. Then the samples were washed by the Hank's liquor for 2 times and nonserum RPMI1640 liquor for 1 time. Then the clear samples were adjusted to the 2×10^6/ml cell suspension with 5% FCS-RPMI liquor. 1 ml of the suspension was added to the round-bottom centrifuge tube. After adding the ConA (10 ng/ml), the samples were cultured in the 5% CO2 at 37° C. for 72 hour.
# The MH60 cells, which grew depending on the IL-6 and were on the logarithmic growth stage, were adjusted to the 1×10^5/ml cell suspension with the 5% FC-RPMI1640.
# The 96-hole flat bottom cell culturing batten was added with the MH60 cell suspension on the quantity of 100 μl/hole and the culturing supernate 25 μl/hole. Then the fluid in each hole was adjusted to the 200 μl with the 5% FCS-RPMI 1640. […] And then they were measured the OD at the wavelength 570 nm and 630 nm. […]
# [3] = 0.05 g/kg, administration day −2˜0
# [4] = 0.05 g/kg, administration day −2˜2
# [5] = 0.1 × 3 g/kg, 0, 2, 4 day once a day
smiles,measurement,setting,value
O=P1(N(CCCl)CCCl)NCCCO1 (stereo not shown) [cyclophosphane],Hemolysin value,"hemolysin antibody [1]; Table 3.2, 0.02 g/kg",27.80 ± 6.60
same,Inhibiting percent,"hemolysin antibody [1]; Table 3.2, 0.02 g/kg",77.9%
same,Hemolysin value,"hemolysin antibody [1]; Table 3.3, 0.02 g/kg",25.0 ± 4.0
same,Inhibiting percent,"hemolysin antibody [1]; Table 3.3, 0.02 g/kg",90.2%
same,Hemolysin value,hemolysin antibody [2],35.0 ± 12.0
same,Inhibiting percent,hemolysin antibody [2],79.3%
same,TNF,TNF α,42.20 ± 9.57 pg/mL
same,Percent of ear swelling,DTH caused by DNFB; [3],37.47 ± 6.71
same,Percent of inhibition,DTH caused by DNFB; [3],11.7%
same,Percent of ear swelling,DTH caused by DNFB; [4],39.40 ± 10.78
same,Percent of inhibition,DTH caused by DNFB; [4],8.1%
same,Percent of ear swelling,DTH caused by DNFB; [5],23.00 ± 7.65
same,Percent of inhibition,DTH caused by DNFB; [5],40.3%
same,Percent of ear swelling,"DTH caused by DNFB; 0.25 g/kg, −3 d",41.84 ± 7.75
same,Percent of inhibition,"DTH caused by DNFB; 0.25 g/kg, −3 d",−8.7%
same,CD4,"CD4, CD8 cells",11.50 ± 2.50 %
same,CD4/CD8,"CD4, CD8 cells",2.91 ± 0.53
same,CD8,"CD4, CD8 cells",4.10 ± 1.20 %
same,IL-6,IL-6,49.6 ± 6.7 IU/ml
